{"source": "patent US4874891A", "about": "“Open \"D\" ring hormone analogs” (Washington University, priority 1986, dated 1989)", "molecular_target": "T1, 17β-HSD (Homo sapiens, UniProt P14061)", "T1 sequence (P14061 1-328)": "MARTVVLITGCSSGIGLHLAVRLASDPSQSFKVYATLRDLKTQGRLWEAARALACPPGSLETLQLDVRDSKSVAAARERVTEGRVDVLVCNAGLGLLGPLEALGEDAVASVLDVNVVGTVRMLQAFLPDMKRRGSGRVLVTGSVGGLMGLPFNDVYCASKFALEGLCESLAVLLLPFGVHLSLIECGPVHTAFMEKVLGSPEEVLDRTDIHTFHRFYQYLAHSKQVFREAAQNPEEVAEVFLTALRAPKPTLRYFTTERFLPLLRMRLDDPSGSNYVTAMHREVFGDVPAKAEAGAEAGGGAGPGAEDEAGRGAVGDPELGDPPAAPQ", "test": "Time-dependent inactivation of 17β-HSD (NADH production at 340 nm with estradiol and NAD+)", "assay_type": "biochemical", "description": "The compounds of the invention prepared as described above were tested for their ability to affect the reaction catalyzed by 17β-HSD, as follows.\nApproximately 5 μl of a 2-20 mM solution of the test compound in absolute alcohol was added to the incubation mixture, which contained:\n200 μM NAD^+ (100 μl of 2 mM stock);\n795 μl 100 mM sodium carbonate buffer (pH 9.2, containing 20% glycerol) or 795 μl phosphate buffer (pH 7.4, 20% glycerol);\n90 μg of enzyme (supplied as 100 μl of 0.9 μg/μl stock).\nAliquots were removed at intervals and added to 950 μl of assay cocktail, which contained:\n100 mM sodium carbonate buffer;\n60 μM estradiol in propylene glycol stock;\n0.8% human serum albumin.\nThe activity remaining in the incubation mixture was assessed by NADH production in the assay cocktail monitored by adsorption at 340 nm every 15 sec for 2 min with an automated spectrophotometer.\nAll aqueous stock solutions were prepared in 100 mM sodium carbonate buffer, 20% glycerol, to maintain enzyme stability. Where additional components were added, such as glutathione, volumes were adjusted accordingly. To assess loss of enzyme activity independent of the test compound, 5 μl ethanol was added in place of steroid stock solution to the assay cocktail.\nWhen aliquots were withdrawn less than 3 min apart, the aliquot was quenched in 900 μl assay buffer without NAD^+ and supplemented with 5 mM glutathione: after all aliquots were withdrawn, samples were assayed by adding NAD^+ (50 μl of a 4 mM stock) and monitored as above.\nCompounds of the invention were evaluated in terms of Km, Vmax, and Rp."}
{"smiles": "C#CC(O)C1(C)CCC2c3ccc(O)cc3CCC2C1", "note": "(stereo not drawn) [--CH(OH)C.ident.CH, [2S-[2α(S*),4aα,10aβ]]-α-Ethynyl-1,2,3,4,4a,9,10,10a-octahydro-7-hydroxy-2-methyl-2-phenanthrenemethanol]", "values": [{"measurement": "effect of glutathione on inactivation of the enzyme", "setting": "5 mM glutathione", "value": "5 mM glutathione protects the enzyme from inactivation"}]}
{"smiles": "C#CC(=O)[C@@]1(C)CC[C@@H]2c3ccc(O)cc3CC[C@H]2C1", "note": "[--COC.ident.CH, [2S-(2α,4aα,10aβ)]-1-(1,2,3,4,4a,9,10,10a-Octahydro-7-hydroxy-2-methyl-2-phenanthrenyl)-2-propyn-1-one]", "values": [{"measurement": "substrate for the enzyme", "setting": "presence of NAD+", "value": "not a substrate for the enzyme in the presence of NAD^+"}, {"measurement": "effect of NADH on inactivation of the enzyme", "setting": "presence of NADH", "value": "inactivation of the enzyme is inhibited by the presence of NADH"}]}
